# Data from US4765972A (priority 1986, dated 1988).
# Legend:
# 21.5 kDa polypeptide = experiment: Photolabelling of calf brain homogenate with ^3 H-NABV, 21.5 kDa polypeptide; type: binding
# Experimental: (§1) Tissue homogenate high speed supernatant and pellet fractions were obtained by homogenizing 1 gram of calf brain in 10 ml volumes of 0.05 M potassium phosphate buffer, pH 7.4, for one minute with a Model PCU Polytron homogenizer with a PT-10-ST probe operated at 50% maximum power (Brinkmann Instruments, Westbury, NY). The brain tissue homogenate was collected after filtering through one layer of cheesecloth. Brain tissue high speed supernatant fractions were prepared by centrifuging the homogenates at 100,000×g for 60 minutes at 4° C. The resulting pellet was washed twice with five times its original volume of buffer, and recentrifuged as described. […] and supernatant fractions were stored in small aliquots in liquid nitrogen and thawed only once.
# (§2) The standard photolabelling mixture used contained 50 nM ^3 H-NABV (50.6 Ci/mmol), 4% dimethylsulfoxide, […] potassium phosphate buffer, pH 7.0, and 2 mg/ml of tissue homogenate or high speed pellet or supernatant fractions in a final volume of 0.05 ml in polyvinylchloride V-microtiter wells (Dynatech Labs, Inc., Alexandria, VA) in a 25° C. water bath. Photolabelling mixtures were incubated for 15 minutes at 25° C. before photolysis. Photoactivation was performed for 10-20 minutes with a UV light equipped with two 15 W self-filtering 302 nm lamps (Model xx-15, Ultra-Violet Products, Inc., San Gabriel, CA), placed 3.4 cm above the photolabelling mixture. […] Photoactivated samples were immediately processed for SDS-PAGE or frozen at -70° C.
# (§3) Equal volumes of SDS sample buffer were added to photolabelled mixtures in microliter wells. The mixtures were transferred to 0.5 ml centrifuge tubes. After heating for five minutes at 100° C. on a heating block, the mixtures were cooled on ice and sonicated for five seconds, cooled, and 0.08 ml aliquots of the mixtures were applied to separate wells of a 1.5 mm thick polyacrylamide slab gel.
# (§4) Electrophoresis was performed as described by Laemmli in Nature (Lond.) 227, 680-685 (1970) with a linear polyacrylamide gradient from 9.7% acrylamide, 0.26% bis-acrylamide and 10% glycerol, to 16.6% acrylamide, 0.44% bis-acrylamide, and 17% glycerol using a Bio-Rad slab gel apparatus (Model 220, Richmond, CA) at 8 mA/gel for sixteen hours. Following fixation and staining of the gel, in 0.25% Coomassie brilliant blue, 45% methanol and 10% acetic acid, the lanes of stained polypeptide corresponding to each sample slot were cut and sliced into 1.0 mm slices. Each slice was incubated with 0.3 ml 30% H2 O2 in a closed scintillation vial at 100° C. for one hour to solubilize the gel slice, with radioactivity subsequently quantitated. The molecular weights of radioactive macromolecules were estimated by their mobilities relative to standard proteins of known molecular weights. (Bio-Rad, Richmone, CA). The radioactivity of photolabelled components was quantitated in triplicate by adding the dpm in each 1 mm gel slice through the radioactive peak.
# (§5) The specific photolabelling was obtained by subtracting the nonspecific linear curve from the mixed biphasic profile.
# [1] = system: 54.3 kDa polypeptide (tubulin subunit); experiment: Photolabelling of calf brain homogenate with ^3 H-NABV, 54.3 kDa polypeptide; type: binding
# Experimental: as §1, §2, §3, §4, §5
# [2] = system: 150-180 kDa surface membrane glycoprotein (gp150-180); experiment: Photoaffinity labelling of cell particulate fractions / plasma membranes with ^3 H-NABV, competition by vinblastine; type: binding, Chinese hamster
# Experimental: Cell lines were cultured as described by Peterson et al., Cancer Res. 43, 222-228 (1983) and by Meyers et al., J. Cell. Biol. 100, 588-597 (1985). Vincristine-resistant (DC-3F/VCRd-5L, 2750-fold resistant) and actinomycin D-resistant (DC=3F/ADX, 2450-fold resistant) variants were selected from Chinese hamster lung (DC-3F) cells as described in the above-cited articles. The drug-sensitive revertant (DC-3F/ADX-U, 30-fold resistant to actinomycin D) was obtained from DC-3F/ADX cells grown in the absence of drugs. The resistant cells expressed a typical multidrug-resistant phenotype as typified by cross-resistance to a number of unrelated natural product compounds. Whole cell particulate fractions were prepared by the sonication of drug-sensitive or drug-resistant cells in 50 mM potassium phosphate buffer (pH 7.4), followed by centrifugation at 100,000×g for one hour. […] Protein concentrations were determined by the procedure of Lowry et al., J. Biol. Chem., 193, 265-275 (1951).
# Photolabelling of membrane samples (50 micrograms protein) was performed in 40 nM potassium phosphate buffer (pH 7.0) containing 4% Me2 SO and 50 nM of either ^3 H-NABV (0.1 microCi) or ^125 I-NASV (0.2 microCi) in a final volume of 0.050 ml. […] The quantitation of radiolabelling was accomplished by cutting appropriate areas from the gel and counting the pieces in a gamma counter. […]
# tubulin [3] = experiment: Tubulin-dependent GTP hydrolysis; type: biochemical; details: both drugs at similar concentrations
# [4] = system: P388 murine leukemic cells; experiment: Growth inhibition of exponentially growing P388 cells; type: cell-based; details: Mus musculus; 72 hours exposure; exponentially growing P388 cells; read-out: IC50
# Description: Thus, NABV is ideal for probing intracellular Vinca alkaloid interactions because it retains the known biochemical and pharmacological properties of this class of drugs.
# [5] = system: 150-180 kDa surface membrane glycoprotein (gp150-180); experiment: Immunoprecipitation of ^125 I-NASV photolabelled, detergent solubilized membranes with antibody specific for gp150-180; type: binding, Chinese hamster; details: DC-3F/VCRd-5L membranes, vinblastine
# Experimental: Immunoprecipitations were performed by extracting membranes (20 micrograms protein) for fifteen minutes at 4° C. with 100 microliters of 50 mM Tris-HCl buffer (pH 7.0) containing 150 mM NaCl, 1% Triton X-100, 1% sodium deoxycholate, 0.1% SDS, 1 mM ethylenediamine tetraacetic acid, 1 mM phenylmethylsulfonylfluoride, and 10 mg/ml Trayslol (Boehringer Mannheim, Indianapolis, IN). The mixtures were then incubated for one hour at 5° C. with 10 microliters rabbit polyclonal antibody specific for multidrug-resistant 150-180 kDa surface membrane glycoprotein (gp150-180).Immune complexe were obtained by incubating the mixture with Protein A-Sepharose (Pharmacia, Piscataway, NJ) for one hour at 5° C. and recovering the beads after washing four times. […]
# Photolabelling of membrane samples (50 micrograms protein) was performed in 40 nM potassium phosphate buffer (pH 7.0) containing 4% Me2 SO and 50 nM of either ^3 H-NABV (0.1 microCi) or ^125 I-NASV (0.2 microCi) in a final volume of 0.050 ml. […] The quantitation of radiolabelling was accomplished by cutting appropriate areas from the gel and counting the pieces in a gamma counter.
# The radiolabelled 150-180 kDa polypeptide was immunoprecipitated only from membrane extracts of drug-resistant cells. No radioactivity was precipitated when nonimmune serum was used in place of the specific antibody. […]
# [6] = system: 150-180 kDa surface membrane glycoprotein (gp150-180); experiment: Photoaffinity labelling of purified plasma membranes with ^125 I-NASV; type: binding, Chinese hamster; details: for increase of radiolabelling of the 150-180 kDa component versus drug-sensitive parental cells: plasma membranes
# Experimental: Cell lines were cultured as described by Peterson et al., Cancer Res. 43, 222-228 (1983) and by Meyers et al., J. Cell. Biol. 100, 588-597 (1985). Vincristine-resistant (DC-3F/VCRd-5L, 2750-fold resistant) and actinomycin D-resistant (DC=3F/ADX, 2450-fold resistant) variants were selected from Chinese hamster lung (DC-3F) cells as described in the above-cited articles. The drug-sensitive revertant (DC-3F/ADX-U, 30-fold resistant to actinomycin D) was obtained from DC-3F/ADX cells grown in the absence of drugs. The resistant cells expressed a typical multidrug-resistant phenotype as typified by cross-resistance to a number of unrelated natural product compounds. Whole cell particulate fractions were prepared by the sonication of drug-sensitive or drug-resistant cells in 50 mM potassium phosphate buffer (pH 7.4), followed by centrifugation at 100,000×g for one hour. The particulate pellet was washed by resuspending in the same buffer, and the whole cell particulate fraction was obtained by a second centrifugation. Purified plasma membranes were prepared by sucrose density gradient centrifugation as described in Peterson et al in J. Supramolecular Structure 9, 289-298 (1978). Protein concentrations were determined by the procedure of Lowry et al., J. Biol. Chem., 193, 265-275 (1951).
# Photolabelling of membrane samples (50 micrograms protein) was performed in 40 nM potassium phosphate buffer (pH 7.0) containing 4% Me2 SO and 50 nM of either ^3 H-NABV (0.1 microCi) or ^125 I-NASV (0.2 microCi) in a final volume of 0.050 ml. […] SDS-PAGE of 5-15% gradient gels containing 4.5 M urea, fluorography, and autoradiography were performed as described by Felsted et al. in Blood 66, 606-613 (1985). The quantitation of radiolabelling was accomplished by cutting appropriate areas from the gel and counting the pieces in a gamma counter.
# A plasma membrane localization for the 150-180 kDa component was established by photoaffinity labelling sucrose density gradient purified plasma membranes from drug-sensitive and drug-resistant cells with ^3 H-NABV. […] These membranes, as well as membranes from another multidrug-resistant variant (DC-3F/ADX) originally selected for resistance to actinomycin D and from a revertant (DC-3F/ADX-U) obtained from the DC-3F/ADX variant were also photoaffinity labelled with ^125 I-NASV. […] In contrast, radiolabelling of the 150-180 kDa component in the DC-3F/ADX-U revertant cells was increased by only about 15-fold. […] In other studies, a number of drug-sensitive cell lines have been shown by immunoblottings to have barely detectable levels of analogous 150-180 kDa surface membrane glycoproteins compared to the corresponding multidrug-resistant variants. […]
# microtubule = experiment: In vitro microtubule assembly; type: biochemical; details: both drugs at similar concentrations
# tubulin [7] = experiment: Tubulin aggregation; type: biochemical; details: both drugs at similar concentrations
# [8] = In-vitro NABV metabolism in calf brain homogenates; type: in vitro ADME; details: dark, 30-60 minutes at 0°, 25°, and 37° C.
# Experimental: In-vitro NABV Metabolism Calf brain homogenates (100 micrograms protein) were incubated with 3H-NABV under standard photolabelling conditions for 30 minutes at 25° C. in the absence of UV light. The mixture was then extracted with 1 ml chloroform and analyzed for radioactive materials in the organic extract by silica gel thin layer chromatography using Solvent I.
# This was confirmed by incubating ^3 H-NABV with brain homogenates in the dark for 30-60 minutes at 0°, 25°, and 37° C., subsequently extracting the mixtures with chloroform, and analyzing for radioactive metabolites by silica gel thin layer chromatography and high pressure liquid chromatography. A single radioactive spot corresponded to the Rf of NABV and accounted for more than 98% of the recovered radioactivity.
# [9] = 0.44 micromoles ^3 H-NABV, competitor 1-22 micromoles
# [10] = corrected for nonspecific labelling, apparent, not a true equilibrium constant, read-out: half maximal saturation photolabelling
# [11] = saturation photolabelling experiments
molecule,measurement,setting,value
COc1cccc2c1C(=O)c1c(O)c3c(c(O)c1C2=O)C[C@@](O)(C(C)=O)C[C@@H]3O[C@H]1C[C@H](N)[C@H](O)[C@H](C)O1 [daunorubicin],effect of increasing concentrations of competitor on photolabelling,21.5 kDa polypeptide; [9],negligible effects
same,effect of increasing concentrations of competitor on photolabelling,[1]; [9],negligible effects
Nc1ccc(C(=O)O)cc1 [p-aminobenzoic acid],effect of nitrene scavenger on photolabelling,21.5 kDa polypeptide; 10^3 -fold molar excess,no significant effect
same,reduction of photolabelling by nitrene scavenger,21.5 kDa polypeptide; 10^4 -fold molar excess,30%
same,reduction of photolabelling by nitrene scavenger,[1]; 100-fold excess over [^3 H]-NABV,25%
same,further reduction of photolabelling by nitrene scavenger,[1]; up to 10^4 -fold molar excess,no significant further reduction
CC[C@]1(O)C[C@@H]2CN(CCc3c([nH]c4ccccc34)[C@@](C(=O)OC)(c3cc4c(cc3OC)N(C)[C@H]3[C@@](O)(C(=O)OC)[C@H](OC(C)=O)[C@]5(CC)C=CCN6CC[C@]43[C@@H]65)C2)C1 [vinblastine],reduction of radiolabelling of the 150-180 kDa component,"[2]; sucrose density gradient purified plasma membranes, 10 micromole vinblastine",59%
same,radiolabelling of the 150-180 kDa component in the presence of vinblastine,"[2]; whole cell particulate fractions, DC-3F/VCRd-5L, 10 micromoles vinblastine",substantially reduced
same,effect on tubulin-dependent GTP hydrolysis,tubulin [3],inhibit tubulin-dependent GTP hydrolysis
same,IC50,[4],0.6 nM
same,reduction of radiolabel in the immunoprecipitate,[5],96%
same,reduction of radiolabelling of the 150-180 kDa component,"[6]; drug-resistant variants, ^125 I-NASV, 10 micromoles vinblastine",80-90%
same,radiolabelling of the 150-180 kDa component in the presence of vinblastine,"[6]; parental and revertant cells, ^125 I-NASV, 10 micromoles vinblastine",completely absent
same,effect on in vitro microtubule assembly,microtubule,inhibit in vitro microtubule assembly
same,effect on tubulin aggregation,tubulin [7],induce tubulin aggregation
N-(p-azido-3-[^125 I-]-salicyl-N'-beta-aminoethylvindesine [^125 I-NASV],increase of radiolabelling of the 150-180 kDa component versus drug-sensitive parental cells,[6]; DC-3F/ADX-U revertant cells,about 15 fold
same,increase of radiolabelling of the 150-180 kDa component versus drug-sensitive parental cells,"[6]; drug-resistant variants (DC-3F/VCRd-5L, DC-3F/ADX)",up to 150 fold
"N-(p-azido-[3,4-^3 H]benzoyl)-N'-beta-aminoethylvindesine [^3 H-NABV]",maximum saturable incorporation,21.5 kDa polypeptide,0.9 pmol ^3 H-NABV bound/mg of calf brain homogenate protein
same,Kd,21.5 kDa polypeptide; [10],95 nM
same,percent of total labelling ascribed to nonspecific labelling,21.5 kDa polypeptide; [11],51%
same,metabolism under standard photolabelling conditions,[8],no appreciable metabolism
same,recovered radioactivity in the single spot corresponding to the Rf of NABV,[8]; TLC and HPLC,more than 98%
same,maximum saturable incorporation,[1],5.5 pmol ^3 H-NABV bound/mg of calf brain homogenate protein
same,Kd,[1]; [10],208 nM
same,percent of total labelling ascribed to nonspecific labelling,[1]; [11],48%
